Patent US8030498B2, “Benzoylpyrazole compounds and herbicides containing them” (Ishihara Sangyo Kaisha, Ltd., priority 2005, dated 2011)

Key:
[1] = system: barnyardgrass (Echinochloa crus-galli L.); test: Test Example 1: foliar treatment, growth inhibition rate, barnyardgrass; assay type: in vivo; details: visually observed 17th to 23rd day after application
In short: (§1)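 Potted upland soil; compounds as wettable powders or emulsifiable concentrates diluted in water at 500 L/ha plus 0.1 vol % spreader, foliar-sprayed at defined leaf stages (rice 1.0–2.5, wheat 1.7–3.4, corn 2.0–3.5, greenfoxtail 1.0–3.0). Growth inhibition (0–100%) scored visually 17–23 days after application.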

[2] = system: crabgrass (Digitaria sanguinalis L.); test: Test Example 1: foliar treatment, growth inhibition rate, crabgrass; assay type: in vivo; details: visually observed 17th to 23rd day after application
In short: (§2)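 Visual scoring of growth inhibition, 0% (untreated) to 100% (complete kill), on days 17–23 following post-emergence spray of formulated compound in water (500 L/ha, 0.1 vol % spreader); plants treated at set leaf stages, e.g. corn 2.0–3.5, wheat 1.7–3.4.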

[3] = system: greenfoxtail (Setaria viridis L.); test: Test Example 1: foliar treatment, growth inhibition rate, greenfoxtail; assay type: in vivo; details: visually observed 17th to 23rd day after application
In short: (§3)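 Seeds were sown in upland field soil in pots. At the target leaf stage (corn 2.0–3.5; greenfoxtail 1.0–3.0; rice 1.0–2.5; wheat 1.7–3.4), the formulated compound, diluted at a water volume of 500 L/ha with 0.1 vol % spreader, was applied by small sprayer. Plants were rated by eye on days 17–23.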

[4] = system: redroot pigweed (Amaranthus retroflexus L.); test: Test Example 1: foliar treatment, growth inhibition rate, redroot pigweed; assay type: in vivo; details: visually observed 17th to 23rd day after application
In short: as §2

[5] = system: prickly sida (Sida spinosa L.); test: Test Example 1: foliar treatment, growth inhibition rate, prickly sida; assay type: in vivo; details: visually observed 17th to 23rd day after application
In short: as §2

[6] = system: velvetleaf (Abutilon theophrasti MEDIC.); test: Test Example 1: foliar treatment, growth inhibition rate, velvetleaf; assay type: in vivo; details: visually observed 17th to 23rd day after application
In short: as §1

[7] = system: rice (Oryza sativa L.); test: Test Example 1: foliar treatment, growth inhibition rate, rice; assay type: in vivo; details: visually observed 17th to 23rd day after application
In short: as §3

[8] = system: wheat (Triticum spp.); test: Test Example 1: foliar treatment, growth inhibition rate, wheat; assay type: in vivo; details: visually observed 17th to 23rd day after application
In short: as §3

[9] = system: corn (Zea mays L.); test: Test Example 1: foliar treatment, growth inhibition rate, corn; assay type: in vivo; details: visually observed 17th to 23rd day after application
In short: as §3

[10] = system: soybean (Glycine max Merr.); test: Test Example 1: foliar treatment, growth inhibition rate, soybean; assay type: in vivo; details: visually observed 17th to 23rd day after application
In short: as §2

[11] = system: barnyardgrass; test: Test Example 2: soil application on the day after sowing, growth inhibition rate, barnyardgrass; assay type: in vivo, Echinochloa crus-galli L.; details: 250 g/ha active ingredient, observed on 19th to 24th day
In short: (§4)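 Pre-emergence soil treatment: one day post-sowing in upland soil, compound formulations at set active-ingredient rates were applied in 500 L/ha water. Visual rating of growth inhibition (0% untreated-equivalent to 100% complete kill) followed on days 19–24 after application.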

[12] = system: crabgrass; test: Test Example 2: soil application on the day after sowing, growth inhibition rate, crabgrass; assay type: in vivo, Digitaria sanguinalis L.; details: 250 g/ha active ingredient, observed on 19th to 24th day
In short: as §4

[13] = system: greenfoxtail; test: Test Example 2: soil application on the day after sowing, growth inhibition rate, greenfoxtail; assay type: in vivo, Setaria viridis L.; details: 250 g/ha active ingredient, observed on 19th to 24th day
In short: as §4

[14] = system: redroot pigweed; test: Test Example 2: soil application on the day after sowing, growth inhibition rate, redroot pigweed; assay type: in vivo, Amaranthus retroflexus L.; details: 250 g/ha active ingredient, observed on 19th to 24th day
In short: as §4

[15] = system: prickly sida; test: Test Example 2: soil application on the day after sowing, growth inhibition rate, prickly sida; assay type: in vivo, Sida spinosa L.; details: 250 g/ha active ingredient, observed on 19th to 24th day
In short: as §4

[16] = system: velvetleaf; test: Test Example 2: soil application on the day after sowing, growth inhibition rate, velvetleaf; assay type: in vivo, Abutilon theophrasti MEDIC.; details: 250 g/ha active ingredient, observed on 19th to 24th day
In short: as §4

[17] = system: rice; test: Test Example 2: soil application on the day after sowing, growth inhibition rate, rice; assay type: in vivo, Oryza sativa L.; details: 250 g/ha active ingredient, observed on 19th to 24th day
In short: as §4

[18] = system: wheat; test: Test Example 2: soil application on the day after sowing, growth inhibition rate, wheat; assay type: in vivo, Triticum spp.; details: 250 g/ha active ingredient, observed on 19th to 24th day
In short: as §4

[19] = system: corn; test: Test Example 2: soil application on the day after sowing, growth inhibition rate, corn; assay type: in vivo, Zea mays L.; details: 250 g/ha active ingredient, observed on 19th to 24th day
In short: as §4

[20] = system: soybean; test: Test Example 2: soil application on the day after sowing, growth inhibition rate, soybean; assay type: in vivo, Glycine max Merr.; details: 250 g/ha active ingredient, observed on 19th to 24th day
In short: as §4

Compound	Growth inhibition rate (%) Barnyardgrass ([1]; 31 g/ha active ingredient) [%]	Growth inhibition rate (%) Crabgrass ([2]; 31 g/ha active ingredient) [%]	Growth inhibition rate (%) Greenfoxtail ([3]; 31 g/ha active ingredient) [%]	Growth inhibition rate (%) redroot pigweed ([4]; 31 g/ha active ingredient) [%]	Growth inhibition rate (%) Prickly sida ([5]; 31 g/ha active ingredient) [%]	Growth inhibition rate (%) Velvetleaf ([6]; 31 g/ha active ingredient) [%]	Growth inhibition rate (%) Rice ([7]; 31 g/ha active ingredient) [%]	Growth inhibition rate (%) Wheat ([8]; 31 g/ha active ingredient) [%]	Growth inhibition rate (%) Corn ([9]; 31 g/ha active ingredient) [%]	Growth inhibition rate (%) Soybean ([10]; 31 g/ha active ingredient) [%]	Growth inhibition rate (%) Barnyardgrass [11] [%]	Growth inhibition rate (%) Crabgrass [12] [%]	Growth inhibition rate (%) Greenfoxtail [13] [%]	Growth inhibition rate (%) redroot pigweed [14] [%]	Growth inhibition rate (%) Prickly sida [15] [%]	Growth inhibition rate (%) Velvetleaf [16] [%]	Growth inhibition rate (%) Rice [17] [%]	Growth inhibition rate (%) Wheat [18] [%]	Growth inhibition rate (%) Corn [19] [%]	Growth inhibition rate (%) Soybean [20] [%]	also measured
CCCSC(=O)Oc1c(C(=O)c2ccc(S(C)(=O)=O)c(OCCOC)c2C)cnn1C [compound 219]	100	100	100	100	70	100	80	0	0	100	100	100	100	100	80	100	95	0	0	0	–
CCSC(=O)Oc1c(C(=O)c2ccc(S(C)(=O)=O)c(SC)c2Cl)cnn1C [compound 212]	–	–	–	–	–	–	–	–	–	–	50	40	0	80	50	0	0	0	0	0	Growth inhibition rate (%) Barnyardgrass ([1]; 63 g/ha active ingredient): 100%; Growth inhibition rate (%) Crabgrass ([2]; 63 g/ha active ingredient): 50%; Growth inhibition rate (%) Greenfoxtail ([3]; 63 g/ha active ingredient): 60%; Growth inhibition rate (%) redroot pigweed ([4]; 63 g/ha active ingredient): 100%; Growth inhibition rate (%) Prickly sida ([5]; 63 g/ha active ingredient): 40%; Growth inhibition rate (%) Velvetleaf ([6]; 63 g/ha active ingredient): 60%; Growth inhibition rate (%) Rice ([7]; 63 g/ha active ingredient): 30%; Growth inhibition rate (%) Wheat ([8]; 63 g/ha active ingredient): 0%; Growth inhibition rate (%) Corn ([9]; 63 g/ha active ingredient): 0%; Growth inhibition rate (%) Soybean ([10]; 63 g/ha active ingredient): 90%
CCSC(=O)Oc1c(C(=O)c2ccc(S(C)(=O)=O)c(C(=O)OC)c2Cl)cnn1CC [compound 95]	100	90	100	100	80	90	90	20	10	95	100	95	100	100	95	80	98	0	0	0	–
CCOC(=O)c1c(S(C)(=O)=O)ccc(C(=O)c2cnn(CC)c2OC(=O)SCC)c1C [compound 61]	98	98	100	100	95	95	90	60	50	80	100	100	100	100	80	90	85	30	0	20	–
CCSC(=O)Oc1c(C(=O)c2ccc(S(C)(=O)=O)c(OC3CCOC3)c2C)cnn1C (stereo not drawn) [compound 217]	100	100	98	100	70	80	90	40	0	98	80	95	60	95	60	20	80	0	0	0	–
CCOC(=O)COc1c(S(C)(=O)=O)ccc(C(=O)c2cnn(C)c2OC(=O)SCC)c1C [compound 65]	20	10	10	30	30	50	0	0	0	10	0	10	10	20	0	0	0	0	0	0	–
